In PubChem BioAssay (NCI):
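These data come from cells grown in 96-well plates and exposed to compound for 48 hours at five concentrations. At the GI50, growth is halved. Definition used: TGI = concentration required for complete inhibition of growth.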

Columns and labels:
Test in all cases: NCI anticancer screen, dose series, 48 h
SK-OV-3 ovarian = tested on: SK-OV-3 ovarian
COLO 205 colon = tested on: COLO 205 colon
UACC-62 melanoma = tested on: UACC-62 melanoma
MDA-MB-231 breast = tested on: MDA-MB-231 breast
RPMI-8226 leukemia = tested on: RPMI-8226 leukemia
HCT-116 colon = tested on: HCT-116 colon
SW-620 colon = tested on: SW-620 colon
BT-549 breast = tested on: BT-549 breast
NCI-H460 lung = tested on: NCI-H460 lung
HL-60(TB) leukemia = tested on: HL-60(TB) leukemia
SK-MEL-2 melanoma = tested on: SK-MEL-2 melanoma
MALME-3M melanoma = tested on: MALME-3M melanoma
CCRF-CEM leukemia = tested on: CCRF-CEM leukemia
HOP-62 NSCLC = tested on: HOP-62 NSCLC
DU-145 prostate = tested on: DU-145 prostate
HS 578T breast = tested on: HS 578T breast
T-47D breast = tested on: T-47D breast
MDA-MB-435 = tested on: MDA-MB-435
PC-3 prostate = tested on: PC-3 prostate
CAKI-1 renal = tested on: CAKI-1 renal
SR leukemia = tested on: SR leukemia
SNB-75 CNS = tested on: SNB-75 CNS
EKVX NSCLC = tested on: EKVX NSCLC
MDA-MB-468 breast = tested on: MDA-MB-468 breast
SN12C renal = tested on: SN12C renal
NCI-H522 lung = tested on: NCI-H522 lung
SK-MEL-28 melanoma = tested on: SK-MEL-28 melanoma
A498 renal = tested on: A498 renal
OVCAR-4 ovarian = tested on: OVCAR-4 ovarian
M14 melanoma = tested on: M14 melanoma
HCC-2998 colon = tested on: HCC-2998 colon
UACC-257 melanoma = tested on: UACC-257 melanoma
SF-539 CNS = tested on: SF-539 CNS
SF-295 CNS = tested on: SF-295 CNS
NCI-H226 lung = tested on: NCI-H226 lung
OVCAR-5 ovarian = tested on: OVCAR-5 ovarian
HCT-15 colon = tested on: HCT-15 colon
HOP-92 NSCLC = tested on: HOP-92 NSCLC
KM12 colon = tested on: KM12 colon
K-562 leukemia = tested on: K-562 leukemia
IGROV1 ovarian = tested on: IGROV1 ovarian
SF-268 CNS = tested on: SF-268 CNS
OVCAR-3 ovarian = tested on: OVCAR-3 ovarian
786-0 renal = tested on: 786-0 renal
SNB-19 CNS = tested on: SNB-19 CNS
A549 NSCLC = tested on: A549 NSCLC
MOLT-4 leukemia = tested on: MOLT-4 leukemia
OVCAR-8 ovarian = tested on: OVCAR-8 ovarian
TK-10 renal = tested on: TK-10 renal
SK-MEL-5 melanoma = tested on: SK-MEL-5 melanoma
U251 CNS = tested on: U251 CNS
ACHN renal = tested on: ACHN renal
UO-31 renal = tested on: UO-31 renal
RXF 393 renal = tested on: RXF 393 renal

`COC(=O)C[C@](O)(CCC(C)C)C(=O)O[C@@H]1C(OC)=C[C@]23CCCN2CCc2cc4c(cc2[C@H]13)OCO4` showed a GI50 (SK-OV-3 ovarian) of 159 nM, a TGI (SK-OV-3 ovarian) of 1620 nM and a GI50 (COLO 205 colon) of 91.6 nM. For the same compound, the TGI (COLO 205 colon) was 397 nM, the GI50 (UACC-62 melanoma) was 144 nM and the TGI (UACC-62 melanoma) was 603 nM. It also gave a GI50 (MDA-MB-231 breast) of 247 nM, a TGI (MDA-MB-231 breast) of 690 nM and a GI50 (RPMI-8226 leukemia) of 33.7 nM. The TGI (RPMI-8226 leukemia) was 132 nM, the GI50 (HCT-116 colon) was 36.3 nM and the TGI (HCT-116 colon) was 1050 nM. The GI50 (SW-620 colon) was 57.5 nM, the TGI (SW-620 colon) was 473 nM and the GI50 (BT-549 breast) was 90.7 nM. For the same compound, the TGI (BT-549 breast) was 412 nM, the GI50 (NCI-H460 lung) was 21.2 nM and the TGI (NCI-H460 lung) was 82 nM. The GI50 (HL-60(TB) leukemia) was 14.3 nM, the TGI (HL-60(TB) leukemia) was 65.5 nM and the GI50 (SK-MEL-2 melanoma) was 216 nM. For the same compound, the TGI (SK-MEL-2 melanoma) was 642 nM, the GI50 (MALME-3M melanoma) was 20.1 nM and the TGI (MALME-3M melanoma) was 68.4 nM. It also gave a GI50 (CCRF-CEM leukemia) of 34.4 nM, a TGI (CCRF-CEM leukemia) of 431 nM and a GI50 (HOP-62 NSCLC) of 244 nM. For the same compound, the TGI (HOP-62 NSCLC) was 1480 nM, the GI50 (DU-145 prostate) was 145 nM and the TGI (DU-145 prostate) was 645 nM. It also gave a GI50 (HS 578T breast) of 138 nM, a TGI (HS 578T breast) of 545 nM and a GI50 (T-47D breast) of 191 nM. For the same compound, the TGI (T-47D breast) was 919 nM, the GI50 (MDA-MB-435) was 101 nM and the TGI (MDA-MB-435) was 351 nM. The GI50 (PC-3 prostate) was 52.1 nM, the TGI (PC-3 prostate) was 756 nM and the GI50 (CAKI-1 renal) was 179 nM. It also gave a TGI (CAKI-1 renal) of 988 nM, a GI50 (SR leukemia) of 18.2 nM and a TGI (SR leukemia) of 57.2 nM. For the same compound, the GI50 (SNB-75 CNS) was 156 nM, the TGI (SNB-75 CNS) was 417 nM and the GI50 (EKVX NSCLC) was 116 nM. The TGI (EKVX NSCLC) was 775 nM, the GI50 (MDA-MB-468 breast) was 25.5 nM and the TGI (MDA-MB-468 breast) was 115 nM. It also gave a GI50 (SN12C renal) of 259 nM, a TGI (SN12C renal) of 1110 nM and a GI50 (NCI-H522 lung) of 21.2 nM. It also gave a TGI (NCI-H522 lung) of 65.3 nM, a GI50 (SK-MEL-28 melanoma) of 70.6 nM and a TGI (SK-MEL-28 melanoma) of 352 nM. It also gave a GI50 (A498 renal) of 17.3 nM, a TGI (A498 renal) of 163 nM and a GI50 (OVCAR-4 ovarian) of 39.5 nM. The TGI (OVCAR-4 ovarian) was 354 nM, the GI50 (M14 melanoma) was 50.4 nM and the TGI (M14 melanoma) was 196 nM. For the same compound, the GI50 (HCC-2998 colon) was 26.9 nM, the TGI (HCC-2998 colon) was 129 nM and the GI50 (UACC-257 melanoma) was 194 nM. The TGI (UACC-257 melanoma) was 810 nM, the GI50 (SF-539 CNS) was 23 nM and the TGI (SF-539 CNS) was 58 nM. It also gave a GI50 (SF-295 CNS) of 135 nM, a TGI (SF-295 CNS) of 662 nM and a GI50 (NCI-H226 lung) of 31.7 nM. The TGI (NCI-H226 lung) was 351 nM, the GI50 (OVCAR-5 ovarian) was 170 nM and the TGI (OVCAR-5 ovarian) was 596 nM. For the same compound, the GI50 (HCT-15 colon) was 36.4 nM, the TGI (HCT-15 colon) was 1270 nM and the GI50 (HOP-92 NSCLC) was 208 nM. For the same compound, the TGI (HOP-92 NSCLC) was 724 nM, the GI50 (KM12 colon) was 56.8 nM and the TGI (KM12 colon) was 546 nM. The GI50 (K-562 leukemia) was 28.9 nM, the TGI (K-562 leukemia) was 116 nM and the GI50 (IGROV1 ovarian) was 64.7 nM. The TGI (IGROV1 ovarian) was 525 nM, the GI50 (SF-268 CNS) was 192 nM and the TGI (SF-268 CNS) was 709 nM. The GI50 (OVCAR-3 ovarian) was 39 nM, the TGI (OVCAR-3 ovarian) was 306 nM and the GI50 (786-0 renal) was 104 nM. It also gave a TGI (786-0 renal) of 544 nM, a GI50 (SNB-19 CNS) of 36 nM and a TGI (SNB-19 CNS) of 305 nM. The GI50 (A549 NSCLC) was 52.1 nM, the TGI (A549 NSCLC) was 10700 nM and the GI50 (MOLT-4 leukemia) was 20.2 nM. For the same compound, the TGI (MOLT-4 leukemia) was 140 nM, the GI50 (OVCAR-8 ovarian) was 130 nM and the TGI (OVCAR-8 ovarian) was 787 nM. The GI50 (TK-10 renal) was 136 nM, the TGI (TK-10 renal) was 1090 nM and the GI50 (SK-MEL-5 melanoma) was 43.1 nM. It also gave a TGI (SK-MEL-5 melanoma) of 181 nM, a GI50 (U251 CNS) of 39.2 nM and a TGI (U251 CNS) of 4020 nM. For the same compound, the GI50 (ACHN renal) was 40.2 nM, the TGI (ACHN renal) was 272 nM and the GI50 (UO-31 renal) was 49.8 nM. It also gave a TGI (UO-31 renal) of 449 nM, a GI50 (RXF 393 renal) of 39.9 nM and a TGI (RXF 393 renal) of 285 nM.
